Assay results published in patent US20250230193A1, “CYCLIC COMPOUND HAVING SELECTIVE KRAS INHIBITORY EFFECT ON HRAS AND NRAS” (CHUGAI SEIYAKU KABUSHIKI KAISHA, priority 2022, published 2025).

Legend:
[1] = biological target: GDP-bound NRAS wild-type protein (Homo sapiens, UniProt P01111); assay: Binding to NRAS by surface plasmon resonance (SPR), Single Cycle Kinetics; details: KD ratio, GDP-bound NRAS wild-type vs GDP-bound KRAS wild-type, SPR
[2] = biological target: GDP-bound HRAS wild-type protein (Homo sapiens, UniProt P01112); assay: Binding to HRAS by surface plasmon resonance (SPR), Single Cycle Kinetics; details: KD ratio, GDP-bound HRAS wild-type vs GDP-bound KRAS wild-type, SPR
Chain of GDP-bound HRAS wild-type protein (P01112 whole entry): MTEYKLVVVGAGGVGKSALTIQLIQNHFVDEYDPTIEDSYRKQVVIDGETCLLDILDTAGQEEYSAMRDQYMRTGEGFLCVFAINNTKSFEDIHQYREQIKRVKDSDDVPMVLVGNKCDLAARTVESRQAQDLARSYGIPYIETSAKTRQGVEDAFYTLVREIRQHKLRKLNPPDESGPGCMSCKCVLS

Chain of GDP-bound NRAS wild-type protein (P01111 whole entry): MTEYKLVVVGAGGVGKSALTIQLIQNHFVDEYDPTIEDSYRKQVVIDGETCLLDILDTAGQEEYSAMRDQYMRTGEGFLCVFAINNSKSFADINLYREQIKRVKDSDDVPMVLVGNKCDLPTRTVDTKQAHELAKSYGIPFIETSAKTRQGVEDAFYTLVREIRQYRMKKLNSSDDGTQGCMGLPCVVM

CCO[C@@H]1C[C@H]2C(=O)NC3(CCC3)C(=O)N(C)[C@@H](C3CCCC3)C(=O)N(CCC3CCCC3)[C@H](C(=O)N(C)C)CC(=O)N(C)[C@@H](CC)C(=O)N[C@@H]([C@@H](C)CC)C(=O)N(C)CC(=O)N(C)[C@H]3C/C=C\CCN(C3=O)[C@@H](Cc3ccc(C(F)(F)F)cc3)C(=O)N(C)CC(=O)N[C@@H](CCc3cc(F)c(C(F)(F)F)c(F)c3)C(=O)N2C1 [PP0982]
NRAS/KRAS (ratio of KD value with respect to NRAS to KD value with respect to KRAS) [1]: AA (a compound having 20 or more is denoted as AA) | HRAS/KRAS (ratio of KD value with respect to HRAS to KD value with respect to KRAS) [2]: A (a compound having 10 or more and less than 20 is denoted as A)

CCO[C@@H]1C[C@H]2C(=O)NC3(CCC3)C(=O)N(C)[C@@H](C3CCCC3)C(=O)N(C)[C@H](C(=O)N(C)C)CC(=O)N(C)[C@@H](CC)C(=O)N[C@@H]([C@@H](C)CC)C(=O)NCC(=O)N(C)[C@H]3C/C=C\CCN(C3=O)[C@@H](Cc3ccc(C(F)(F)F)cc3)C(=O)N(C)CC(=O)N[C@@H](CCc3cc(F)c(C(F)(F)F)c(F)c3)C(=O)N2C1 [PP0983]
NRAS/KRAS (ratio of KD value with respect to NRAS to KD value with respect to KRAS) [1]: A (a compound having 10 or more and less than 20 is denoted as A) | HRAS/KRAS (ratio of KD value with respect to HRAS to KD value with respect to KRAS) [2]: A (a compound having 10 or more and less than 20 is denoted as A)

CCO[C@@H]1C[C@H]2C(=O)NC3(CCC3)C(=O)N(C)[C@@H](C3CCCC3)C(=O)N(C)[C@H](C(=O)N(C)C)CC(=O)N(C)[C@@H](CC)C(=O)N[C@@H]([C@@H](C)CC)C(=O)N3CC[C@H]3C(=O)N(C)[C@H]3C/C=C\CCN(C3=O)[C@@H](Cc3ccc(C(F)(F)F)cc3)C(=O)N(C)CC(=O)N[C@@H](CCc3cc(F)c(C(F)(F)F)c(F)c3)C(=O)N2C1 [PP0984]
NRAS/KRAS (ratio of KD value with respect to NRAS to KD value with respect to KRAS) [1]: A (a compound having 10 or more and less than 20 is denoted as A) | HRAS/KRAS (ratio of KD value with respect to HRAS to KD value with respect to KRAS) [2]: A (a compound having 10 or more and less than 20 is denoted as A)

CCO[C@@H]1C[C@H]2C(=O)NC3(CCC3)C(=O)N(C)[C@@H](C3CCCC3)C(=O)N(C)[C@H](C(=O)N(C)C)CC(=O)N(C)[C@@H](CC)C(=O)N[C@@H]([C@@H](C)CC)C(=O)N(C)CC(=O)N(C)[C@H]3CCCCN(C3=O)[C@@H](Cc3ccc(C(F)(F)F)cc3)C(=O)N(C)CC(=O)N[C@@H](CCc3cc(Cl)c(C(F)(F)F)c(Cl)c3)C(=O)N2C1 [PP0985]
NRAS/KRAS (ratio of KD value with respect to NRAS to KD value with respect to KRAS) [1]: C (A compound having a KD ratio of 0.1 or more and less than 3 is denoted as C) | HRAS/KRAS (ratio of KD value with respect to HRAS to KD value with respect to KRAS) [2]: C (A compound having a KD ratio of 0.1 or more and less than 3 is denoted as C)

CCO[C@@H]1C[C@H]2C(=O)NC3(CCC3)C(=O)N(C)[C@@H](C3CCCC3)C(=O)N(C)[C@H](C(=O)N(C)C)CC(=O)N(C)[C@@H](CC)C(=O)N[C@@H]([C@@H](C)CC)C(=O)N(C)CC(=O)N(C)[C@H]3CCCCN(C3=O)[C@@H](Cc3ccc(C(F)(F)F)cc3)C(=O)N(C)CC(=O)N[C@@H](CCc3ccc(OC(F)F)c(F)c3)C(=O)N2C1 [PP0986]
NRAS/KRAS (ratio of KD value with respect to NRAS to KD value with respect to KRAS) [1]: C (A compound having a KD ratio of 0.1 or more and less than 3 is denoted as C) | HRAS/KRAS (ratio of KD value with respect to HRAS to KD value with respect to KRAS) [2]: C (A compound having a KD ratio of 0.1 or more and less than 3 is denoted as C)

CCO[C@@H]1C[C@H]2C(=O)NC3(CCC3)C(=O)N(C)[C@@H](C3CCCC3)C(=O)N(C)[C@H](C(=O)N(C)C)CC(=O)N(C)[C@@H](CC)C(=O)N[C@@H]([C@@H](C)CC)C(=O)N(C)CC(=O)N(C)[C@H]3CCCCN(C3=O)[C@@H](Cc3ccc(C(F)(F)F)cc3)C(=O)N(C)CC(=O)N[C@@H](CCc3ccc(Cl)c(Cl)c3)C(=O)N2C1 [PP0987]
NRAS/KRAS (ratio of KD value with respect to NRAS to KD value with respect to KRAS) [1]: C (A compound having a KD ratio of 0.1 or more and less than 3 is denoted as C) | HRAS/KRAS (ratio of KD value with respect to HRAS to KD value with respect to KRAS) [2]: C (A compound having a KD ratio of 0.1 or more and less than 3 is denoted as C)

CCO[C@@H]1C[C@H]2C(=O)NC3(CCC3)C(=O)N(C)[C@@H](C3CCCC3)C(=O)N(C)[C@H](C(=O)N(C)C)CC(=O)N(C)[C@@H](CC)C(=O)N[C@@H]([C@@H](C)CC)C(=O)N(C)CC(=O)N(C)[C@H]3CCCCN(C3=O)[C@@H](Cc3ccc(C(F)(F)F)cc3)C(=O)N(C)CC(=O)N[C@@H](CCc3cc(Cl)c(Cl)c(Cl)c3)C(=O)N2C1 [PP0988]
NRAS/KRAS (ratio of KD value with respect to NRAS to KD value with respect to KRAS) [1]: C (A compound having a KD ratio of 0.1 or more and less than 3 is denoted as C) | HRAS/KRAS (ratio of KD value with respect to HRAS to KD value with respect to KRAS) [2]: B (a compound having 3 or more and less than 10 is denoted as B)

CCO[C@@H]1C[C@H]2C(=O)NC3(CCC3)C(=O)N(C)[C@@H](C3CCCC3)C(=O)N(C)[C@H](C(=O)N(C)C)CC(=O)N(C)[C@@H](CC)C(=O)N[C@@H]([C@@H](C)CC)C(=O)N(C)CC(=O)N(C)[C@H]3CCCCCN(C3=O)[C@@H](Cc3ccc(C(F)(F)F)cc3)C(=O)N(C)CC(=O)N[C@@H](CCc3cc(Cl)c(C(F)(F)F)c(Cl)c3)C(=O)N2C1 [PP0989]
NRAS/KRAS (ratio of KD value with respect to NRAS to KD value with respect to KRAS) [1]: B (a compound having 3 or more and less than 10 is denoted as B) | HRAS/KRAS (ratio of KD value with respect to HRAS to KD value with respect to KRAS) [2]: B (a compound having 3 or more and less than 10 is denoted as B)

CCO[C@@H]1C[C@H]2C(=O)N[C@]3(C)CCCCCC[C@@H](C(=O)N[C@@H]([C@@H](C)CC)C(=O)N(C)CC(=O)N(C)[C@H]4CCCCN(C4=O)[C@@H](Cc4ccc(C(F)(F)F)cc4)C(=O)N(C)CC(=O)N[C@@H](CCc4cc(F)c(C(F)(F)F)c(F)c4)C(=O)N2C1)N(C)C(=O)C[C@@H](C(=O)N1CCOCC1)N(C)C(=O)[C@H](C1CCCC1)N(C)C3=O [PP0992]
NRAS/KRAS (ratio of KD value with respect to NRAS to KD value with respect to KRAS) [1]: B (a compound having 3 or more and less than 10 is denoted as B) | HRAS/KRAS (ratio of KD value with respect to HRAS to KD value with respect to KRAS) [2]: B (a compound having 3 or more and less than 10 is denoted as B)

CCO[C@@H]1C[C@H]2C(=O)N[C@@]3(C)CCCCCCC[C@@H](C(=O)N[C@@H]([C@@H](C)CC)C(=O)N(C)CC(=O)N(C)[C@H]4CCCCN(C4=O)[C@@H](Cc4ccc(C(F)(F)F)cc4)C(=O)N(C)CC(=O)N[C@@H](CCc4cc(F)c(C(F)(F)F)c(F)c4)C(=O)N2C1)N(C)C(=O)C[C@@H](C(=O)N1CCOCC1)N(C)C(=O)[C@H](C1CCCC1)N(C)C3=O [PP0993]
NRAS/KRAS (ratio of KD value with respect to NRAS to KD value with respect to KRAS) [1]: B (a compound having 3 or more and less than 10 is denoted as B) | HRAS/KRAS (ratio of KD value with respect to HRAS to KD value with respect to KRAS) [2]: B (a compound having 3 or more and less than 10 is denoted as B)

CCCCO[C@@H]1C[C@H]2C(=O)NC3(CCC3)C(=O)N(C)[C@@H](C3CCCC3)C(=O)N(C)[C@H](C(=O)N3CCOCC3)CC(=O)N(C)[C@@H](CC(C)C)C(=O)N[C@@H]([C@@H](C)CC)C(=O)N(C)CC(=O)N(C)[C@H]3CCCCN(C3=O)[C@@H](Cc3ccc(C(F)(F)F)cc3)C(=O)N(C)CC(=O)N[C@@H](CCc3cc(F)c(C(F)(F)F)c(F)c3)C(=O)N2C1 [PP0999]
NRAS/KRAS (ratio of KD value with respect to NRAS to KD value with respect to KRAS) [1]: C (A compound having a KD ratio of 0.1 or more and less than 3 is denoted as C) | HRAS/KRAS (ratio of KD value with respect to HRAS to KD value with respect to KRAS) [2]: B (a compound having 3 or more and less than 10 is denoted as B)

CC[C@H](C)[C@@H]1NC(=O)[C@H](CC(C)C)N(C)C(=O)C[C@@H](C(=O)N2CCOCC2)N(C)C(=O)[C@H](C2CCCC2)N(C)C(=O)C2(CCC2)NC(=O)[C@@H]2C[C@@H](OCC3CC3)CN2C(=O)[C@H](CCc2cc(F)c(C(F)(F)F)c(F)c2)NC(=O)CN(C)C(=O)[C@H](Cc2ccc(C(F)(F)F)cc2)N2CCCC[C@@H](C2=O)N(C)C(=O)CN(C)C1=O [PP1000]
NRAS/KRAS (ratio of KD value with respect to NRAS to KD value with respect to KRAS) [1]: B (a compound having 3 or more and less than 10 is denoted as B) | HRAS/KRAS (ratio of KD value with respect to HRAS to KD value with respect to KRAS) [2]: B (a compound having 3 or more and less than 10 is denoted as B)

CC[C@H](C)[C@@H]1NC(=O)[C@H](CC(C)C)N(C)C(=O)C[C@@H](C(=O)N2CCOCC2)N(C)C(=O)[C@H](C2CCCC2)N(C)C(=O)C2(CCC2)NC(=O)[C@@H]2C[C@@H](OCC3CCCC3)CN2C(=O)[C@H](CCc2cc(F)c(C(F)(F)F)c(F)c2)NC(=O)CN(C)C(=O)[C@H](Cc2ccc(C(F)(F)F)cc2)N2CCCC[C@@H](C2=O)N(C)C(=O)CN(C)C1=O [PP1001]
NRAS/KRAS (ratio of KD value with respect to NRAS to KD value with respect to KRAS) [1]: B (a compound having 3 or more and less than 10 is denoted as B) | HRAS/KRAS (ratio of KD value with respect to HRAS to KD value with respect to KRAS) [2]: B (a compound having 3 or more and less than 10 is denoted as B)

CC[C@H](C)[C@@H]1NC(=O)[C@H](CC(C)C)N(C)C(=O)C[C@@H](C(=O)N2CCOCC2)N(C)C(=O)[C@H](C2CCCC2)N(C)C(=O)C2(CCC2)NC(=O)[C@@H]2C[C@@H](OCC(F)F)CN2C(=O)[C@H](CCc2cc(F)c(C(F)(F)F)c(F)c2)NC(=O)CN(C)C(=O)[C@H](Cc2ccc(C(F)(F)F)cc2)N2CCCC[C@@H](C2=O)N(C)C(=O)CN(C)C1=O [PP1002]
NRAS/KRAS (ratio of KD value with respect to NRAS to KD value with respect to KRAS) [1]: B (a compound having 3 or more and less than 10 is denoted as B) | HRAS/KRAS (ratio of KD value with respect to HRAS to KD value with respect to KRAS) [2]: B (a compound having 3 or more and less than 10 is denoted as B)

CC[C@H](C)[C@@H]1NC(=O)[C@H](CC(C)C)N(C)C(=O)C[C@@H](C(=O)N2CCOCC2)N(C)C(=O)[C@H](C2CCCC2)N(C)C(=O)C2(CCC2)NC(=O)[C@@H]2C[C@@H](OC)CN2C(=O)[C@H](CCc2cc(F)c(C(F)(F)F)c(F)c2)NC(=O)CN(C)C(=O)[C@H](Cc2ccc(C(F)(F)F)cc2)N2CCCC[C@@H](C2=O)N(C)C(=O)CN(C)C1=O [PP1003]
NRAS/KRAS (ratio of KD value with respect to NRAS to KD value with respect to KRAS) [1]: C (A compound having a KD ratio of 0.1 or more and less than 3 is denoted as C) | HRAS/KRAS (ratio of KD value with respect to HRAS to KD value with respect to KRAS) [2]: B (a compound having 3 or more and less than 10 is denoted as B)
